Results as given in patent publication US8440674B2, “Substituted pyrimidine compounds as RAF inhibitors and methods of use” (Amgen Inc., priority 2005, dated 2013).
Where two headings read alike, the source gives them in different places.

Columns and labels:
[1] = tested on: A375 cells, a human melanoma cell line having the V600E mutant Braf; experiment: B-Raf cell-based assay (ratio of phospho-ERK1/2 to total ERK1/2); details: A-375, 1 h, P-ERK/total ERK, 60 minute incubation, read-out: IC50 for the inhibition of B-raf as measured by the cell-based assay
Protocol: A cell-based assay was optimized to assay the ability of compounds to inhibit Braf activity in a whole cell context. […] The cell-based assay quantifies the ratio of phospho-ERK1/2 to total ERK1/2 and can thereby assay the cellular inhibition of Braf kinase activity.
A375 cells are plated into 96 well plates and grown to confluence. The cells are then changed into starve media (DMEM/0.1% BSA) for 60 minutes. Compounds in DMSO dose curves are then diluted in starve media and added to cells. […] After a 60 minute incubation the cells are fixed for 20 minutes at room temperature in 4% formaldehyde with 0.1%Triton X-100, protease and phosphatase inhibitors in PBS. The cells are washed four times in PBS then blocked for 60 minutes using a one to one mix of Odyssey blocking buffer (Li-Cor Biosciences, Inc) and PBS. Primary antibodies (rabbit anti-phospho p42/p44 MAPK (P-ERK1/2) from Cell Signaling Technology and mouse anti-ERK2 from Santa Cruz Biotechnology) are diluted in blocking buffer, added to the cells and incubated overnight at 4° C. The cells are then washed four times in PBS/0.1% Tween-20. Secondary antibodies (anti-mouse IRDye 800CW from Rockland, Inc and anti-rabbit AlexaFlour680 from Molecular Probes) are diluted in blocking buffer/0.5% Tween and incubated on cells for 60 minutes. After 4 washes in PBS/0.1% Tween-20 the microplate is scanned on an Odyssey Infrared Imager (Li-Cor Bioscience) which can read the signal given by the two secondary antibodies on their respective channels. The ratio of P-ERK/total ERK is determined and IC50s generated using Excel-XLfit software.

recombinant HuBraf V600E = recombinant HuBraf V600E (Homo sapiens, UniProt P15056, V600E); experiment: B-raf Homogenous Time Resolved Fluorescent (HTRF) kinase assay; type: biochemical; details: substrate MEK1, 10 uM ATP; threshold lists; read-out: IC50 for the inhibition of B-raf as measured by the HTRF assay
Chain of recombinant HuBraf V600E (P15056 whole entry V600E): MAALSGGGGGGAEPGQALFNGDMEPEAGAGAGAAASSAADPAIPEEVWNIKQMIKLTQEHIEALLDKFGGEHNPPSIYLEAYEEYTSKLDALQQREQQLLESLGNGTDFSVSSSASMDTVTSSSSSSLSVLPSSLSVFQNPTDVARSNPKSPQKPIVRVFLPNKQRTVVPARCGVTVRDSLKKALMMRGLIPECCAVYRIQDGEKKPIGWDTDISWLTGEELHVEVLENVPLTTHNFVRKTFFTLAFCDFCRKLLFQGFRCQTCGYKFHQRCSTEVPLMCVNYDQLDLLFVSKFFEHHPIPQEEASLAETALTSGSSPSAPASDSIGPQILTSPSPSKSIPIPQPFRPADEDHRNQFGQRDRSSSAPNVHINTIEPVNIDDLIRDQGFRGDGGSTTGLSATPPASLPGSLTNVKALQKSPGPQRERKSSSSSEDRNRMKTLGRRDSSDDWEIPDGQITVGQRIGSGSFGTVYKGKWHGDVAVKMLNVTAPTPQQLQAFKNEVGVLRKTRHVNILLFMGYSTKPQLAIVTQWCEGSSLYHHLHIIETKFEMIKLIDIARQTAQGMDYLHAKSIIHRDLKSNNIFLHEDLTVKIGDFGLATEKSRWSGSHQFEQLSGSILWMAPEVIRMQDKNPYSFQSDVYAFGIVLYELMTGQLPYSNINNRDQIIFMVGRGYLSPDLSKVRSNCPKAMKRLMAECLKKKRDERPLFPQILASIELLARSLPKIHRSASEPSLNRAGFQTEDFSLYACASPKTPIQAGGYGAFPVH
Protocol: A Homogeneous Time Resolved Fluorescence (HTRF) kinase assay was established to assay the ability of compounds to inhibit human mutant Braf kinase activity on the substrate MEK1. […] The final concentration of the kinase reaction buffer is 50 mM Tris-HCL pH 7.5, 10 mM MgCl2, 0.5% glucose, 0.5 mM DTT, 0.01% BSA.
The detection reaction proceeds for one hour and is read on a RubyStar (BMG Labtech) counter. IC50s for the test compounds are generated using Excel-XLfit software.

| IC50 ([1]; threshold list) [µM] | IC50 (recombinant HuBraf V600E) [µM] | IC50 ([1]; threshold lists) [µM] | SMILES |
| --- | --- | --- | --- |
| ≤ 0.5 | ≤ 0.25 | – | Cc1ccc2c(Nc3cccc(C(F)(F)F)c3)nccc2c1Nc1ncccc1-c1ccncn1 [Example 7, 6-methyl-N^5-(3-(4-pyrimidinyl)-2-pyridinyl)-N^1-(3-(trifluoromethyl)phenyl)-1,5-isoquinolinediamine] |
| ≤ 0.5 | ≤ 0.25 | – | COc1cc(Nc2nccc3c(Nc4ncccc4-c4ccncn4)cccc23)cc(C(F)(F)F)c1 [Example 8, N^1-(3-(methyloxy)-5-(trifluoromethyl)phenyl)-N^5-(3-(4-pyrimidinyl)-2-pyridinyl)-1,5-isoquinolinediamine] |
| ≤ 0.5 | ≤ 0.25 | – | Cc1ccc2c(Nc3ccccc3)nccc2c1Nc1ncccc1-c1ccncn1 [Example 9, 6-methyl-N^1-phenyl-N^5-(3-(4-pyrimidinyl)-2-pyridinyl)-1,5-isoquinolinediamine] |
| ≤ 0.5 | ≤ 0.25 | – | Cc1ccc2c(Nc3cccc(C(C)(C)C)c3)nccc2c1Nc1ncccc1-c1ccncn1 [Example 10, N^1-(3-(1,1-dimethylethyl)phenyl)-6-methyl-N^5-(3-(4-pyrimidinyl)-2-pyridinyl)-1,5-isoquinolinediamine] |
| ≤ 0.5 | ≤ 0.25 | – | Cc1ccc2c(Nc3cccc(N(C)C)c3)nccc2c1Nc1ncccc1-c1ccncn1 [Example 11, N^1-(3-(dimethylamino)phenyl)-6-methyl-N^5-(3-(4-pyrimidinyl)-2-pyridinyl)-1,5-isoquinolinediamine] |
| ≤ 0.5 | ≤ 0.25 | – | Cc1ccc2c(Nc3cccc(C(C)C)c3)nccc2c1Nc1ncccc1-c1ccncn1 [Example 12, 6-methyl-N^1-(3-(1-methylethyl)phenyl)-N^5-(3-(4-pyrimidinyl)-2-pyridinyl)-1,5-isoquinolinediamine] |
| ≤ 0.5 | ≤ 0.25 | – | Cc1ccc2c(Nc3cccc(OC(C)C)c3)nccc2c1Nc1ncccc1-c1ccncn1 [Example 13, 6-methyl-N^1-(3-((1-methylethyl)oxy)phenyl)-N^5-(3-(4-pyrimidinyl)-2-pyridinyl)-1,5-isoquinolinediamine] |
| ≤ 0.5 | ≤ 0.25 | – | Cc1ccc2c(Nc3cccc(Cl)c3)nccc2c1Nc1ncccc1-c1ccncn1 [Example 14, N^1-(3-chlorophenyl)-6-methyl-N^5-(3-(4-pyrimidinyl)-2-pyridinyl)-1,5-isoquinolinediamine] |
| ≤ 0.5 | ≤ 0.25 | – | Cc1ccc2c(Nc3cc(C(C)(C)C)nn3C)nccc2c1Nc1ncccc1-c1ccncn1 [Example 15, N^1-(3-(1,1-dimethylethyl)-1-methyl-1H-pyrazol-5-yl)-6-methyl-N^5-(3-(4-pyrimidinyl)-2-pyridinyl)-1,5-isoquinolinediamine] |
| ≤ 0.5 | ≤ 0.25 | – | Cc1ccc2c(Nc3ccc(C(C)(C)C)cc3)nccc2c1Nc1ncccc1-c1ccncn1 [Example 16, N^1-(4-(1,1-dimethylethyl)phenyl)-6-methyl-N^5-(3-(4-pyrimidinyl)-2-pyridinyl)-1,5-isoquinolinediamine] |
| ≤ 0.5 | ≤ 0.25 | – | CNc1nccc2c(Nc3ncccc3-c3ccncn3)c(C)ccc12 [Example 17, N^1-6-dimethyl-N^5-(3-(4-pyrimidinyl)-2-pyridinyl)-1,5-isoquinolinediamine] |
| ≤ 0.5 | ≤ 0.25 | – | Cc1ccc2c(Nc3cccc(OC(F)(F)F)c3)nccc2c1Nc1ncccc1-c1ccncn1 [Example 18, 6-methyl-N^5-(3-(4-pyrimidinyl)-2-pyridinyl)-N^1-(3-((trifluoromethyl)oxy)phenyl)-1,5-isoquinolinediamine] |
| ≤ 0.5 | ≤ 0.25 | – | COc1ccc(Nc2nccc3c(Nc4ncccc4-c4ccncn4)c(C)ccc23)cc1C(F)(F)F [Example 19, 6-methyl-N^1-(4-(methyloxy)-3-(trifluoromethyl)phenyl)-N^5-(3-(4-pyrimidinyl)-2-pyridinyl)-1,5-isoquinolinediamine] |
| ≤ 0.5 | ≤ 0.25 | – | CNc1ncc2cc(-c3c(C)ccc4c(Nc5cccc(C(F)(F)F)c5)nccc34)ccc2n1 [Example 24, N-methyl-6-(6-methyl-1-((3-(trifluoromethyl)phenyl)amino)-5-isoquinolinyl)-2-quinazolinamine] |
| ≤ 0.5 | ≤ 0.25 | – | CNc1ncc2cc(-c3c(C)ccc4c(Nc5cccc(OC(C)C)c5)nccc34)ccc2n1 [Example 25, N-methyl-6-(6-methyl-1-((3-((1-methylethyl)oxy)phenyl)amino)-5-isoquinolinyl)-2-quinazolinamine] |
| ≤ 0.5 | ≤ 0.25 | – | CNc1ncc2cc(-c3c(C)ccc4c(Nc5cccc(C(C)C)c5)nccc34)ccc2n1 [Example 26, N-methyl-6-(6-methyl-1-((3-(1-methylethyl)phenyl)amino)-5-isoquinolinyl)-2-quinazolinamine] |

| IC50 ([1]; threshold list) [µM] | IC50 (recombinant HuBraf V600E) [µM] | IC50 ([1]; threshold lists) [µM] | SMILES |
| --- | --- | --- | --- |
| ≤ 0.5 | ≤ 0.25 | – | CNc1ncc2cc(-c3c(C)ccc4c(Nc5cc(C(C)(C)C)on5)nccc34)ccc2n1 [Example 27, 6-(1-((5-(1,1-dimethylethyl)-3-isoxazolyl)amino)-6-methyl-5-isoquinolinyl)-N-methyl-2-quinazolinamine] |
| – | – | ≤ 5 | CNc1cc(-c2cccnc2Nc2c(C)ccc3c(Nc4cc(C(C)(C)C)nn4C)nccc23)ncn1 [Example 69, N^1-(3-tert-butyl-1-methyl-1H-pyrazol-5-yl)-6-methyl-N^5-(3-(6-(methylamino)pyrimidin-4-yl)pyridin-2-yl)isoquinoline-1,5-diamine] |
| – | – | ≤ 5 | CNc1ncc2cc(-c3c(C)ccc4c(Nc5cccc(OC(F)(F)F)c5)nc(C)nc34)ccc2n1 [Example 86, 6-(2,7-dimethyl-4-(3-(trifluoromethoxy)phenylamino)quinazolin-8-yl)-N-methylquinazolin-2-amine] |
| ≤ 0.5 | – | ≤ 1 | CNc1ncc2cc(-c3c(C)ccc4c(Nc5ccc(C#N)cc5)nccc34)ccc2n1 [Example 103] |
| ≤ 0.5 | – | ≤ 1 | CNc1ncc2cc(-c3c(C)ccc4c(Nc5cccnc5)nn(C)c34)ccc2n1 [Example 163] |
| ≤ 0.5 | – | – | CNc1ncc2cc(-c3c(C)ccc4c(Nc5cccc(C#N)c5)nn(C)c34)ccc2n1 [Example 196] |
| – | ≤ 0.25 | – | Cc1ccc(C(F)(F)F)cc1Nc1nccc2c(Nc3ncccc3-c3ccncn3)c(C)ccc12 [Example 344, 6-methyl-N1-(2-methyl-5-(trifluoromethyl)phenyl)-N5-(3-(pyrimidin-4-yl)pyridin-2-yl)isoquinoline-1,5-diamine] |
| ≤ 0.5 | – | ≤ 1 | CNc1cc(-c2cccnc2F)ncn1 [Example 345, 6-(2-fluoropyridin-3-yl)-N-methylpyrimidin-4-amine] |
| – | – | ≤ 5 | CNc1cc(-c2cccnc2Nc2c(C)ccc3c(Nc4cc(C(F)(F)F)ccc4C)nccc23)ncn1 [Example 349] |
| – | – | ≤ 5 | CNc1ncc2cc(-c3c(C)ccc4c(Nc5cccc(C(F)(F)F)c5)nccc34)c(=O)n(C)c2n1 [Example 354, 8-methyl-6-(6-methyl-1-(3-(trifluoromethyl)phenylamino)isoquinolin-5-yl)-2-(methylamino)pyrido[2,3-d]pyrimidin-7(8H)-one] |
| – | ≤ 0.25 | – | CNc1ncc2cc(-c3cccc4c(Nc5cccc(C(F)(F)F)c5)nccc34)c(=O)n(C)c2n1 [Example 360] |
| – | ≤ 0.25 | – | Cc1ccc2c(Nc3cccc(C(F)(F)F)c3)nccc2c1-c1ccc2nc(N)ncc2c1 [Example 361, 6-(6-methyl-1-(3-(trifluoromethyl)phenylamino)isoquinolin-5-yl)quinazolin-2-amine] |
| – | ≤ 1 | – | CNc1ncc2cc(-c3c(C)ccc4c(Nc5cncc(OC(C)C)c5)nccc34)ccc2n1 [Example 378, 6-(1-(5-isopropoxypyridin-3-ylamino)-6-methylisoquinolin-5-yl)-N-methylquinazolin-2-amine] |
| – | – | ≤ 5 | CNc1nccc(-c2cccnc2Oc2c(C)ccc3c(Nc4cccc(OC(F)(F)F)c4)nccc23)n1 [Example 413, 6-methyl-5-(3-(2-(methylamino)pyrimidin-4-yl)pyridin-2-yloxy)-N-(3-(trifluoromethoxy)phenyl)isoquinolin-1-amine] |
| – | – | ≤ 5 | CNc1ncc2cc(-c3c(C)ccc4c(Nc5cccc(C(C)(C)O)c5)nncc34)ccc2n1 [Example 433, 2-(3-(6-methyl-5-(2-(methylamino)quinazolin-6-yl)phthalazin-1-ylamino)phenyl)propan-2-ol] |
| ≤ 0.5 | – | – | CNc1ncc2cc(-c3c(C)ccc4c(Nc5ccc6c(c5)NC(=O)CC6(C)C)nnc(C)c34)ccc2n1 [Example 438] |
